Measured values from patent US8466145B2, “Dipeptidyl peptidase IV inhibitors” (Orchid Chemicals & Pharmaceuticals Limited, priority 2009, dated 2013).

Assays:
DPP-IV = target: T1, DPP-IV (Homo sapiens, UniProt P27487); experiment: DPP-IV inhibition, compounds screened by using human plasma; type: biochemical; details: screened by using human plasma (starred examples); for inhibition at 0.3 µM: 300 nM compound concentration
T1 construct: from tissue; host or cells: human plasma (per the earlier reading of the assay)
T1 sequence (P27487 39-766 limits assumed): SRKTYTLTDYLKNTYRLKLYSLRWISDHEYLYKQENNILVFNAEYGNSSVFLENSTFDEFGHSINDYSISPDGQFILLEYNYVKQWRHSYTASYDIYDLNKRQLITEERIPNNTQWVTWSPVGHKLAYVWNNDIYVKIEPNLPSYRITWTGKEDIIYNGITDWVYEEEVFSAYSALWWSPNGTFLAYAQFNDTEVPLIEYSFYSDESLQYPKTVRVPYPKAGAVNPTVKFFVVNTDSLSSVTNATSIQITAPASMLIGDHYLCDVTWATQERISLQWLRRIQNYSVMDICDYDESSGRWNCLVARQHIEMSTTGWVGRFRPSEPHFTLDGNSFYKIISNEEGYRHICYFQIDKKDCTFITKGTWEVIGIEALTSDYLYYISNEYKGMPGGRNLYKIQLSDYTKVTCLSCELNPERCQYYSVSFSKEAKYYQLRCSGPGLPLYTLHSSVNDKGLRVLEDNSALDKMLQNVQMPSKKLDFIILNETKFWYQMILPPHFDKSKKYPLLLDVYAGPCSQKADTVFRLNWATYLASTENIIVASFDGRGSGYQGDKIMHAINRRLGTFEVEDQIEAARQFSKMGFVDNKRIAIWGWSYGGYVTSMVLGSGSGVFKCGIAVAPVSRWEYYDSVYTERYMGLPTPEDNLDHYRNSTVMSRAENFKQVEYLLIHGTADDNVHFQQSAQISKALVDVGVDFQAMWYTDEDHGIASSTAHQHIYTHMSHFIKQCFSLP

C57BL/6 mice = experiment: Oral glucose tolerance test; type: in vivo; details: compound 10 mg/kg; for Antihyperglycemic activity, reduction in AUC (blood glucose), Time 0.50 hr: glucose 2 g/kg challenge 0.50 hr after compound administration; for Antihyperglycemic activity, reduction in AUC (blood glucose), Time 6.00 hr: glucose 2 g/kg challenge 6.00 hr after compound administration, NA = No activity
Method: Effect of compound on glucose tolerance was examined in 7 week old C57BL/6 mice. Animals were kept for 18 h fasting and were challenged with glucose (2 g/kg) 30 min after compound (10 mg/kg) administration. Blood samples for glucose measurement were obtained by tail bleed pre dose and at serial time points after the glucose load (30, 60 and 120 minutes). Blood glucose estimation was done by using ContourTS active strips on glucometer (Bayer). To find the time response on glucose excursion, animals were challenged with glucose at different time point after compound administration (0.5, 2, 4, 6, 8, 12 or 24 hours) at blood glucose was measured at pre (0 minute) and post (30, 60 and 120 minutes) glucose load.
Results of blood glucose were expressed as area under curve (AUC) was calculated using Prism software.

[1] = target: T2, human recombinant Dipeptidyl peptidase IV enzyme (hrDPP IV) (Homo sapiens, UniProt P27487); experiment: DPP IV assay, cleavage of H-Gly-Pro-AMC by human recombinant DPP-IV enzyme; type: biochemical
T2 construct: purchased R&D systems
T2 sequence (P27487 whole entry): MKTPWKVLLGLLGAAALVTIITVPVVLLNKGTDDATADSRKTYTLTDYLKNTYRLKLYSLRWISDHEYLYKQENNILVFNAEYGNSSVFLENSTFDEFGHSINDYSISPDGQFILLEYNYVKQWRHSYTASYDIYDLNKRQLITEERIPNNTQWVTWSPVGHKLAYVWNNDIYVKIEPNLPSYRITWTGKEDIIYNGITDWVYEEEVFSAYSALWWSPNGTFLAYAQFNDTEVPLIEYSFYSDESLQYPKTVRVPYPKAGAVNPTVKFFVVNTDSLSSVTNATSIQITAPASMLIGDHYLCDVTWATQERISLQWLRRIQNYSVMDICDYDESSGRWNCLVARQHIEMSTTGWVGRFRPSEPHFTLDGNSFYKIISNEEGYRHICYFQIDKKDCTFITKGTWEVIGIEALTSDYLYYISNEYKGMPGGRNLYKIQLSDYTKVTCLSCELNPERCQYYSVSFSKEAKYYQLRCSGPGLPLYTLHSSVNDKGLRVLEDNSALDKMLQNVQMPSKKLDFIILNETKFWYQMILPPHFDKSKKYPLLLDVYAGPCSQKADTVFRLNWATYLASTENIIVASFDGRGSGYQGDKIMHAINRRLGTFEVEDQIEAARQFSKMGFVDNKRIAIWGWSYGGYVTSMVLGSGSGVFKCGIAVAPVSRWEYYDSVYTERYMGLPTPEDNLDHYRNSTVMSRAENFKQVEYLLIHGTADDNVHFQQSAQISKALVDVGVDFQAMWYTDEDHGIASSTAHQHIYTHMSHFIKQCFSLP
How it was run: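 Human recombinant DPP-IV (3 ng) preincubated 60 min at room temperature with compound in 25 mM HEPES, 140 mM NaCl, 1% BSA, pH 7.8, in duplicate. Reaction with H-Gly-Pro-AMC (10 μL of 100 μM) for 20 min, stopped with acetic acid; AMC fluorescence 360/460 nm, IC50 from percent inhibition.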

[2] = target: T3, human recombinant Dipeptidyl peptidase 8 enzyme (hrDPP 8) (Homo sapiens, UniProt Q6V1X1); experiment: DPP 8 assay, cleavage of H-Ala-Pro-AFC; type: biochemical; details: selectivity for DPP-IV over DPP 8
T3 construct: purchased R&D systems
T3 sequence (Q6V1X1 whole entry): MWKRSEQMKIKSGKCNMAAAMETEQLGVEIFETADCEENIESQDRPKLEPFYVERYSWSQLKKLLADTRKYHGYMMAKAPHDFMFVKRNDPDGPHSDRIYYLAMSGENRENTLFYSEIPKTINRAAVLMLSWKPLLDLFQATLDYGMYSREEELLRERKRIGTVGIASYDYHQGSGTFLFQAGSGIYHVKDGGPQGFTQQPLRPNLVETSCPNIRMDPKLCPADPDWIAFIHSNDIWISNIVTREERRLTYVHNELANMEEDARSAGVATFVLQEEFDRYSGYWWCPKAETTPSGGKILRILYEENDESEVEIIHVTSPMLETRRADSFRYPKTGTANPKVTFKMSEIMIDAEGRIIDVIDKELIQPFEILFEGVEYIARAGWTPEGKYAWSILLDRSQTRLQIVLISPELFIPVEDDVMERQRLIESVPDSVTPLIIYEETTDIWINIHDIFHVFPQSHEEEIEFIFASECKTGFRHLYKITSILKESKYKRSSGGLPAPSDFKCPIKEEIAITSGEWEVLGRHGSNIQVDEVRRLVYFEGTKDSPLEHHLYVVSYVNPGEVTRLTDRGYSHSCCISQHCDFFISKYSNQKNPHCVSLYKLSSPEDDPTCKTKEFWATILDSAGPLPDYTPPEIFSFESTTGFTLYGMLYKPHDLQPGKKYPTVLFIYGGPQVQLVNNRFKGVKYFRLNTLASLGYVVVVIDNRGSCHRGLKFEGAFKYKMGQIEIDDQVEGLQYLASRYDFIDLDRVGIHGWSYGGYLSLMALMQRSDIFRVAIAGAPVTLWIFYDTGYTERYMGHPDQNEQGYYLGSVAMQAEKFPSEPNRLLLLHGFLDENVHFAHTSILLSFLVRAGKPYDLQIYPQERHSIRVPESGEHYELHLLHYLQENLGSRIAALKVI
Method: DPP 8 activity was determined by the cleavage rate of 7-amino 4-fluoromethylcoumarin (AFC) from the substrate H-Ala-Pro-AFC. In brief, the assay was conducted by adding 30 ng of human recombinant Dipeptidyl peptidase 8 enzyme (hrDPP 8, available commercially from R&D systems) in 70 μL of the assay buffer (50 mM TRIS and 5 mM EDTA, pH 7.7) to a 96 well black flat bottom microtitre plate. Test compound was added as 10 μL additions to all wells except blank and total activity wells. After incubation of test substance with enzyme for 30 minutes at room temperature, 10 μL of 100 μM substrate H-Ala-Pro-AFC was added. After mixing, the plate was left for 30 minutes at room temperature. Then the reaction was terminated by addition of 10 μL of 25% Glacial Acetic Acid. Fluorescence was measured using Spectra Max Gemini XS (Molecular Devices, USA) at an excitation filter of 400 nm and emission filter of 505 nm.
Test compound dissolved in DMSO were diluted with assay buffer at different concentrations and tested in duplicates. Percentage inhibition was calculated with respect to total activity. IC50 value was calculated using Prism Software.

[3] = target: T4, human recombinant Dipeptidyl peptidase 9 enzyme (hrDPP 9) (Homo sapiens, UniProt Q86TI2); experiment: DPP 9 assay, cleavage of H-Gly-Pro-AMC; type: biochemical; details: selectivity for DPP-IV over DPP 9
T4 construct: purchased R&D systems
T4 sequence (Q86TI2 whole entry): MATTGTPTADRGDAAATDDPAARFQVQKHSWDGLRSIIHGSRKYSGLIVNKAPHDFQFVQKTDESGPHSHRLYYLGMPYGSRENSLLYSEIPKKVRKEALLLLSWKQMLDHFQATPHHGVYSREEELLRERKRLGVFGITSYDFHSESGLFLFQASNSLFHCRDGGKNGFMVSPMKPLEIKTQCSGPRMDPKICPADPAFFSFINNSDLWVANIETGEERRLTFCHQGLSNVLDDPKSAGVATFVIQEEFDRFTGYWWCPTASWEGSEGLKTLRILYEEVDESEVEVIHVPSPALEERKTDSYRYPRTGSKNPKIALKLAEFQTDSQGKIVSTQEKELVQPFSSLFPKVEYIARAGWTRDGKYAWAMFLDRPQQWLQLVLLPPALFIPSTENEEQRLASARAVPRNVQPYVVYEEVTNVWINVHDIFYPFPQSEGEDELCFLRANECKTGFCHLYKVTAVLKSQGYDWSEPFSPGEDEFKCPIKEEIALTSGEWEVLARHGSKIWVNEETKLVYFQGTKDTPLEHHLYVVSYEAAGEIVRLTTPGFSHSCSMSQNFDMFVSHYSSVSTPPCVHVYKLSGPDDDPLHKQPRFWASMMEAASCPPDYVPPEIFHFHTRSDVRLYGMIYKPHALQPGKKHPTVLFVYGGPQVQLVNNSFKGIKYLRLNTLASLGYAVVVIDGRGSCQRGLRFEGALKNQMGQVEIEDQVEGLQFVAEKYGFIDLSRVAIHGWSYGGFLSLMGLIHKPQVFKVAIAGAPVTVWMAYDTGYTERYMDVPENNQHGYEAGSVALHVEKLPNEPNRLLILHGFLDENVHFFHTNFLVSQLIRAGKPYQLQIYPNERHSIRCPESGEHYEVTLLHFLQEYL
Method: DPP 9 activity was determined by the cleavage rate of 7-amino 4-methylcoumarin (AMC) from the substrate H-Gly-Pro-AMC. In brief, the assay was conducted by adding 10 ng of human recombinant Dipeptidyl peptidase 9 enzyme (hrDPP 9, available commercially from R&D systems) in 70 μL of the assay buffer (50 mM TRIS and 5 mM EDTA, pH 7.7) to a 96 well black flat bottom microtitre plate. Test compound was added as 10 μL additions to all wells except blank and total activity wells. After incubation of test substance with enzyme for 30 minutes at room temperature, 10 μL of 100 μM substrate H-Gly-Pro-AMC was added. After mixing, the plate was left for 30 minutes at room temperature. Then the reaction was terminated by addition of 10 μL of 25% Glacial Acetic Acid. Fluorescence was measured using Spectra Max Gemini XS (Molecular Devices, USA) at an excitation filter of 360 nm and emission filter of 460 nm.
Test compound dissolved in DMSO were diluted with assay buffer at different concentrations and tested in duplicates. Percentage inhibition was calculated with respect to total activity. IC50 value was calculated by using Prism Software.

| SMILES | melting point | inhibition at 0.3 µM (DPP-IV) | IC50 [1] | Selectivity (Fold) DPP 8 [2] | Selectivity (Fold) DPP 9 [3] | Antihyperglycemic activity, reduction in AUC (blood glucose), Time 0.50 hr (C57BL/6 mice) | also measured |
| --- | --- | --- | --- | --- | --- | --- | --- |
| CC1(C)[C@H](Cn2cncn2)CC[C@]1(C)NCC(=O)N1C[C@H](F)C[C@H]1C#N [Example 5, (2S,4R)-1-(2-((1S,3R)-3-((1H-1,2,4-Triazol-1-yl)methyl)-1,2,2-trimethylcyclopentylamino)acetyl)-4-fluoropyrrolidine-2-carbonitrilemethanesulfonate] |  | 4.1% |  |  |  |  |  |
| CC1(C)[C@H](Cn2cncn2)CC[C@]1(C)NCC(=O)N1C[C@@H](F)C[C@H]1C#N [Example 3, (2S,4S)-1-(2-((1S,3R)-3-((1H-1,2,4-Triazol-1-yl)methyl)-1,2,2-trimethylcyclopentylamino)acetyl)-4-fluoropyrrolidine-2-carbonitrile] | 132 to 135 °C |  | 0.011 ± 0.00016 µM | >27000 Fold | >5000 Fold | 53.89% |  |
| CC1(C)[C@@H](NCC(=O)N2C[C@@H](F)C[C@H]2C#N)CC[C@@]1(C)c1nc(-c2ccc(F)cc2)no1 [Example 65, (2S,4S)-4-Fluoro-1-(2-((1S,3R)-3-(3-(4-fluorophenyl)-1,2,4-oxadiazol-5-yl)-2,2,3-trimethylcyclopentylamino)acetyl)pyrrolidine-2-carbonitrile] |  |  |  |  |  |  | IC50 (DPP-IV): 0.238 µM |
| CC1(C)[C@H](CN2CCCS2(=O)=O)CC[C@]1(C)NCC(=O)N1C[C@@H](F)C[C@H]1C#N [Example 29, (2S,4S)-1-(2-((1S,3R)-3-[(1,1-Dioxidoisothiazolidin-2-yl)methyl]-1,2,2-trimethyleyclopentylamino)acetyl)-4-fluoropyrrolidine-2-carbonitrile] | 171 to 174 °C |  | 0.00761 µM | >13000 Fold | >1100 Fold | 42.52% | Antihyperglycemic activity, reduction in AUC (blood glucose), Time 6.00 hr (C57BL/6 mice): 20.21% |
| CC1(C)[C@H](CN2CCOCC2)CC[C@]1(C)NCC(=O)N1C[C@@H](F)C[C@H]1C#N [Example 34, (2S,4S)-4-Fluoro-1-(2-((1S,3R)-1,2,2-trimethyl-3-(morpholinomethyl)cyclopentylamino)acetyl)pyrrolidine-2-carbonitrile] | 163 to 166 °C |  | 0.00894 µM | >10000 Fold | >1500 Fold | 54.32% |  |
| CC1(C)[C@H](Cn2cnnn2)CC[C@]1(C)NCC(=O)N1C[C@@H](F)C[C@H]1C#N [Example 32, (2S,4S)-1-(2-((1S,3R)-3-((1H-Tetrazol-1-yl)methyl)-1,2,2-trimethylcyclopentylamino)acetyl)-4-fluoropyrrolidine-2-carbonitrile] | 151 to 154 °C |  | 0.00601 µM | >9500 Fold | >1900 Fold | 17.80% |  |
| CC1(C)[C@@H](Cn2cncn2)CC[C@@]1(C)NCC(=O)N1C[C@H](F)C[C@H]1C#N [Example 2, (2S,4R)-1-(2-((1R,3S)-3-((1H-1,2,4-Triazol-1-yl)methyl)-1,2,2-trimethylcyclopentylamino)acetyl)-4-fluoropyrrolidine-2-carbonitrilemethane sulfonate] |  | 10.5% |  |  |  |  |  |

Further lines, with some results ahead:

| melting point | inhibition at 0.3 µM (DPP-IV) | IC50 [1] | Selectivity (Fold) DPP 8 [2] | Selectivity (Fold) DPP 9 [3] | SMILES | Antihyperglycemic activity, reduction in AUC (blood glucose), Time 0.50 hr (C57BL/6 mice) | also measured |
| --- | --- | --- | --- | --- | --- | --- | --- |
| 74 to 79 °C | 13.4% |  |  |  | CN1C[C@]2(C)CC[C@](NCC(=O)N3C[C@H](F)C[C@H]3C#N)(C1)C2(C)C [Example 77, (2S,4R)-4-Fluoro-1-(2-((1R,5R)-3,5,8,8-tetramethyl-3-azabicyclo[3.2.1]octan-1-ylamino)acetyl)pyrrolidine-2-carbonitrile] |  |  |
| 172 to 175 °C | 13.5% |  |  |  | CC1(C)[C@H](CS(=O)(=O)c2ccc(S(C)(=O)=O)cc2)CC[C@]1(C)NCC(=O)N1C[C@H](F)C[C@H]1C#N [Example 47, (2S,4R)-4-Fluoro-1-(2-((1S,3R)-1,2,2-trimethyl-3-((4-(methylsulfonyl)phenylsulfonyl)methyl)cyclopentylamino)acetyl)pyrrolidine-2-carbonitrile] |  |  |
|  | 23.2% |  |  |  | CC1(C)[C@@H](NCC(=O)N2CCC[C@H]2C#N)CC[C@@]1(C)c1nc(-c2ccc(F)cc2)no1 [Example 66, (S)-1-(2-((1S,3R)-3-(3-(4-Fluorophenyl)-1,2,4-oxadiazol-5-yl)-2,2,3-trimethylcyclopentylamino)acetyl)pyrrolidine-2-carbonitrile methanesulfonate] |  |  |
|  | 4.46% |  |  |  | CC1(C)[C@@H](c2nc(-c3ccc(F)cc3)no2)CC[C@@]1(C)NCC(=O)N1C[C@@H](F)C[C@H]1C#N [Example 48, (2S,4S)-4-Fluoro-1-(2-((1R,3S)-3-(3-(4-fluorophenyl)-1,2,4-oxadiazol-5-yl)-1,2,2-trimethyleyclopentylamino)acetyl)pyrrolidine-2-carbonitrile] |  |  |
| 147 to 149 °C |  | 0.00659 µM | >19000 Fold | >7000 Fold | CC1(C)[C@H](Cc2noc(CO)n2)CC[C@]1(C)NCC(=O)N1C[C@@H](F)C[C@H]1C#N [Example 60, (2S,4S)-4-Fluoro-1-(2-((1S,3S)-3-((5-(hydroxymethyl)-1,2,4-oxadiazol-3-yl)methyl)-1,2,2-trimethylcyclopentylamino)acetyl)pyrrolidine-2-carbonitrile] | 47.70% | Antihyperglycemic activity, reduction in AUC (blood glucose), Time 6.00 hr (C57BL/6 mice): 51.55%; Antihyperglycemic activity, reduction in AUC (blood glucose), Time 12.00 hr (C57BL/6 mice; glucose 2 g/kg challenge 12.00 hr after compound administration): 29.62%; inhibition at 0.3 µM ([1]; 300 nM compound concentration): 94.7% |
| 149 to 153 °C |  | 0.0267 µM | >550 Fold | >25 Fold | CC1(C)[C@@H](NCC(=O)N2C[C@@H](F)C[C@H]2C#N)CC[C@@]1(C)c1nc(-c2ccncc2)no1 [Example 70, (2S,4S)-4-Fluoro-1-(2-((1S,3R)-2,2,3-trimethyl-3-(3-(pyridin-4-yl)-1,2,4-oxadiazol-5-yl)cyclopentylamino)acetyl)pyrrolidine-2-carbonitrile] |  |  |
| 126 to 130 °C |  | 0.0402 µM | >250 Fold | >15 Fold | CC1(C)[C@@H](NCC(=O)N2C[C@@H](F)C[C@H]2C#N)CC[C@@]1(C)c1nc(-c2cccnc2)no1 [Example 68, (2S,4S)-4-Fluoro-1-(2-((1S,3R)-2,2,3-trimethyl-3-(3-(pyridin-3-yl)-1,2,4-oxadiazol-5-yl)cyclopentylamino)acetyl)pyrrolidine-2-carbonitrile] |  |  |
| 70 to 75 °C |  | 0.0186 µM | >1800 Fold | >150 Fold | CC1(C)[C@H](NCC(=O)N2C[C@@H](F)C[C@H]2C#N)CC[C@]1(C)c1nc(-c2cccnc2)no1 [Example 69, (2S,4S)-4-Fluoro-1-(2-((1R,3S)-2,2,3-trimethyl-3-(3-(pyridin-3-yl)-1,2,4-oxadiazol-5-yl)cyclopentylamino)acetyl)pyrrolidine-2-carbonitrile] |  |  |
